Data set [1] concerns rabbit ear hypertrophic scar. As to the kind of experiment: Histopathology of rabbit ear wounds (neovascularization, fibrosis, re-epithelization). Type of data set: in vivo, New Zealand white rabbits. Details: key to Total Score, Treated Mean: aggregate of neovascularization, fibrosis, re-epithelization grades; key to Neovascularization score, Treated Mean / Fibrosis/Collagen score, Treated Mean / Re-epithelization score, Treated Mean: five-step severity grade: minimal, mild, moderate, marked, severe. The settings on record: rabbit ear wound, intradermal dosing of 1 wt. %; for Total Score, Treated Mean: aggregation of microscopic findings; for Fibrosis/Collagen score, Treated Mean / Neovascularization score, Treated Mean / Re-epithelization score, Treated Mean: five-step severity grading (minimal to severe). The method, then:
In New Zealand white rabbits, maintained under a surgical plane of anesthesia, trauma stimulation of the skin on the ventral surface of both ears is initiated on Day 1. Trauma sites are evaluated on Days 8, 15, 22, 29, 36, and 43. On days 15 and 29, each site is dosed with test compounds (e.g., 1% w/w, 100 μl) by intradermal or intralesional injections.
At necropsy, each treatment site was harvested and preserved for hematoxylin and […] and Mason's trichrome stainings. Each lesion was examined histologically and graded for neovascularization, fibrosis and re-epithelization using a five-step/severity grading system (minimal, mild, moderate, marked, and severe). The average total score is an aggregation of these microscopic findings relating to an inflammatory response.

The test system of another data set is subconjunctival scarring. As to the kind of experiment: Bleb survival after glaucoma filtration surgery in rabbit eyes. Type of data set: in vivo, rabbits. The method, then: In order to investigate the anti-scarring effect of topically applied test compounds following ocular surgeries, glaucoma filtration surgery was performed on rabbit eyes. Postoperative subconjunctival wound healing is a major cause of late bleb failure after glaucoma filtration surgery in humans. Select multikinase inhibitors were tested for effect on bleb survival over time. Inhibition of subconjunctival fibrosis following surgery will improve bleb survival. Vehicle was used as a negative control and pirfenidone was used a positive control.
A scleral tract was created in the left eyes superiorally by tunneling a beveled 22-gauge intravenous cannula through the sclera, beginning behind the limbus and continuing until the cannula is visible in the anterior chamber. The cannula was flushed with sodium heparin (1000 units) prior to placement. The cannula needle was withdrawn and the cannula advanced beyond the pupillary margin to prevent iris blockage of the tube. The cannula was trimmed approximately 2 mm and secured to the sclera using suture. Both the Tenon's and the conjunctiva were sutured with 9-0 Prolene. Six rabbits were used per group and the left eye of each rabbit underwent glaucoma filtration surgery. The treatment groups include vehicle control, pirfenidone (1%, w/v) as a positive control, sorafenib (0.3%, w/v), and lenvatinib (0.3%, w/v). Eyedrops (35 uL) were topically applied to the eyes following surgery three times day for 30 days. All animals were sacrificed on Day 30.
Bleb was monitored throughout the study. Bleb volumes were measured with the use of calibrated calipers. […] There were differences noted between groups at Day 7, and the majority of blebs were gone by Day 14 through Day 30 indicating bleb failure due to subconjunctival scarring. Results of the vehicle and pirfenidone groups were similar to those reported in the literature (Zhong H et al., Invest Ophthalmol Vis Sci, 52: 3136-3142, 2011).

A short description of data set [2]: Ocular tissue and plasma distribution after topical ocular instillation (LC-MS/MS). Type of data set: in vivo, New Zealand White rabbits. The settings on record: male, New Zealand White, rabbit. The method, then:
The objective of this study was to assess the local tolerance and ocular distribution of sorafenib and lenvatinib (0.3% w/w) when administered by topical ocular instillation in the eyes. Five to six male New Zealand White rabbits were used per treatment group. Each right eye received a 35 μL eyedrop of the vehicle, sorafenib (0.3% w/w), or lenvatinib (0.3% w/w) three times daily for 5 days. On Dosing Day 5, the animals were sacrificed and eyes were enucleated, and plasma and the ocular tissues were collected. Tissue and plasma concentrations of the compounds were measured by LC-MS/MS.

In a further data set the test system is TGF-β1 mRNA. As to the kind of experiment: TGF-β1 mRNA expression (qPCR) in skin of LL-37-challenged mice. The following applies: single intradermal injection 1.6 mg. Type of data set: in vivo. Here is the method:
(§1) In our study, mice were injected subcutaneously with 40 μl of LL-37 (3.3 mg/mL) to induce inflammatory reactions. Immediately following the LL-37 injection, axitinib, nintedanib, sunitinib, or lenvatinib were individually administered as a single intradermal injection (1.6 mg). LL-37 injection was repeated every 12 hours for a total of 4 injections. Endotoxin-free water and dexamethasone (3 mg/kg by intraperitoneal injection, twice), respectively, were used as negative and positive control groups.
(§2) Mice were then anaesthetized, and tissue samples of lesion sites were excised and fixed for H&E stainings and immunohistochemical analysis. Markers for inflammation (CD4 and CD8) were determined using specific antibodies. TGF beta levels are measured by mRNA expression using qPCR.
The TGFb1 mRNA expression in mice induced with LL37 and treated with lenvatinib was 79% of that challenged with LL37 alone (i.e., without treatment).
A general note: In qPCR the cycle at which signal appears reflects the starting amount.

Data set [3] concerns LL37-induced inflammation. As to the kind of experiment: Histopathology (inflammation, CD4+ and CD8+ lymphocyte scores) in LL37-induced dermal inflammation model. The class given is in vivo. The settings on record: mice, single intradermal injection 1.6 mg, LL-37 challenge, 48 hours. Here is the method:
as §1
At 48 hours after the initial LL-37 injection, the dorsal skin was photographed, and the severity of skin lesions were scored for redness and measured for areas of involvement.
as §2
The tissue samples were analyzed for inflammation characteristics. Histopathology endpoints included inflammation, and CD4+ and CD8+T-lymphocyte immunostaining. For inflammation scores, tissues were examined histologically and scored for inflammatory cell infiltrate.

The next data set deals with subretinal fibrosis. As to the kind of experiment: Laser-induced subretinal fibrosis model in mice. The following applies: for effect on subretinal fibrosis: approximately 1 μL intravitreally on day of laser application, Days 15 and 35; for neovascular lesion sizes: approximately 1 μL of 1% (w/w) intravitreally on day of laser application. Type of data set: in vivo, C57BL/6 mice. The method, then: The anti-fibrotic effects of test compounds were also evaluated in a subretinal fibrosis model in C57BL/6 mice. Three to five lesions were generated in the Bruch's membrane of the study eye using laser photocoagulation (75-μm spot size, 0.1-s duration, 90 mW, OcuLight TX 532 nm). Subretinal fibrosis started to form 5-7 days post laser application. Test compounds having certain spectrum of multikinase inhibition activities or vehicle were intravitreally injected on the day of laser application. The dosing concentration of the test compounds was 1% (w/w) of nintedanib and lenvatinib. The control groups were vehicle and mouse VEGF164 antibody. There were 12 mice per treatment group. Approximately, 1 μL each of the test compounds, vehicle, or positive control was injected intravitreally to the right eye of each animal. On Days 15 and 35, the eyes were examined with fluorescein angiography, followed by enucleation. Immunostaining on the dissected choroid was used to assess subretinal fibrosis (e.g., collagen 1, isolectin B4 and/or DAPI). The primary antibodies used were fluorescence conjugated isolectin B4 (FITC-conjugated isolectin B4) and anti-collagen type I antibody. […] Thus, these compounds can be used to treat subretinal fibrosis associated with proliferative retinal diseases.

The record followed here is US12502391B2, “Multi-kinase inhibitors of VEGF and TGF beta and uses thereof” (AIVIVA BIOPHARMA, INC., priority 2018, dated 2025).

Where two headings read alike, the source gives them in different places.

Take `CNC(=O)c1cc(Oc2ccc(NC(=O)Nc3ccc(Cl)c(C(F)(F)F)c3)cc2)ccn1` [sorafenib]: the “angiogenesis/neovascularization and fibrosis by histopathology versus untreated wounds (words)” value was “do not show any reduction in angiogenesis” in data set [1]; “slightly increased neovascularization, and similar or slightly increased fibrosis” in data set [1] (listed as Sorafenib). Also, the “Total Score, Treated Mean” value in data set [1] is listed as 5.8. The “Fibrosis/Collagen score, Treated Mean” value in data set [1] amounted to 2.5. The “Neovascularization score, Treated Mean” value in data set [1] turned out to be 3. For the same compound, in data set [1], the “Re-epithelization score, Treated Mean” value worked out at 0.3. Besides, the “bleb failure on Day 14” value with subconjunctival scarring (0.3% w/v eyedrops three times a day, 6 eyes per group) was “all of the sorafenib treated eyes demonstrated bleb failure”. In addition, the concentration at 5 day of dosing in data set [2] (aqueous humor, topical, 0.3 % w/w (35 μL eyedrop), rabbit eyes, topical instillation of 0.3% three times daily for five days, N=6, read-out: Ocular tissue concentration, Aqueous Humor, Mean) was determined as 0 ng/g; in data set [2] (choroid, topical, 0.3 % w/w (35 μL eyedrop), rabbit eyes, topical instillation of 0.3% three times daily for five days, N=6, read-out: Ocular tissue concentration, Choroid, Mean), 8.19 ng/g; in data set [2] (conjunctiva, topical, 0.3 % w/w (35 μL eyedrop), rabbit eyes, topical instillation of 0.3% three times daily for five days, N=6, read-out: Ocular tissue concentration, Conjunctiva, Mean), 860 ng/g; in data set [2] (cornea, topical, 0.3 % w/w (35 μL eyedrop), rabbit eyes, topical instillation of 0.3% three times daily for five days, N=6, read-out: Ocular tissue concentration, Cornea, Mean), 131 ng/g; in data set [2] (iris ciliary body, topical, 0.3 % w/w (35 μL eyedrop), rabbit eyes, topical instillation of 0.3% three times daily for five days, N=6, read-out: Ocular tissue concentration, Iris Ciliary Body, Mean), 3.34 ng/g; in data set [2] (plasma, topical, 0.3 % w/w (35 μL eyedrop), 0.3% w/w eyedrop 35 μL three times daily, Day 5 of dosing, read-out: plasma concentration, mean (±SD)) it was 5.09 ng/mL. Further, the concentration at 5 day of dosing in data set [2] (retina, topical, 0.3 % w/w (35 μL eyedrop), rabbit eyes, topical instillation of 0.3% three times daily for five days, N=6, read-out: Ocular tissue concentration, Retina, Mean) was found to be 17.4 ng/g; in data set [2] (sclera, topical, 0.3 % w/w (35 μL eyedrop), rabbit eyes, topical instillation of 0.3% three times daily for five days, N=6, read-out: Ocular tissue concentration, Sclera, Mean), 16.4 ng/g; in data set [2] (vitreous humor, topical, 0.3 % w/w (35 μL eyedrop), rabbit eyes, topical instillation of 0.3% three times daily for five days, N=6, read-out: Ocular tissue concentration, Vitreous Humor, Mean), 0.11 ng/g.

Consider `COc1cc2nccc(Oc3ccc(NC(=O)NC4CC4)c(Cl)c3)c2cc1C(N)=O` [lenvatinib], for which, in the data set on TGF-β1 mRNA (LL-37 challenge), the “TGF-β1 mRNA expression among all treatment groups” value was “lowest TGF-β1 mRNA expression”. Besides, the “TGFb1 mRNA expression relative to LL37 alone (without treatment)” value in the data set on TGF-β1 mRNA (LL-37 every 12 hours x4, 48 hours after initial LL-37 injection) amounted to 79%. Further, the “scores of inflammation (inflammatory cell infiltrate), words” value in data set [3] is recorded as “prominent reductions”. Moreover, the “bleb survival on Day 7” value with subconjunctival scarring (eyedrops 35 uL three times a day, pirfenidone 1% w/v, lenvatinib 0.3% w/v, compared to vehicle and sorafenib groups) was “kept bleb survival on Day 7”. For the same compound, the “effect on subretinal fibrosis” value with subretinal fibrosis was “therapeutic effects in the treatment of subretinal fibrosis”. Further, the “neovascular lesion sizes” value in the data set with subretinal fibrosis is “marked reductions in neovascular lesion sizes”. Also, the concentration at 5 day of dosing in data set [2] (in vivo, Ocular tissue concentration, Aqueous Humor, Mean) turned out to be 5.49 ng/g; in data set [2] (in vivo, Ocular tissue concentration, Choroid, Mean) it was 38 ng/g; in data set [2] (in vivo, Ocular tissue concentration, Conjunctiva, Mean) it was 300 ng/g; in data set [2] (in vivo, Ocular tissue concentration, Cornea, Mean), 178 ng/g; in data set [2] (in vivo, Ocular tissue concentration, Iris Ciliary Body, Mean) it was 18.2 ng/g; in data set [2] (in vivo, Ocular tissue concentration, Retina, Mean), 23.5 ng/g. Besides, the concentration at 5 day of dosing in data set [2] (in vivo, Ocular tissue concentration, Sclera, Mean) is 49 ng/g; in data set [2] (in vivo, Ocular tissue concentration, Vitreous Humor, Mean), 0.619 ng/g; in data set [2] (in vivo, plasma concentration, mean (±SD)), 131 ng/mL.

Turning to `COC(=O)c1ccc2c(c1)NC(=O)/C2=C(\Nc1ccc(N(C)C(=O)CN2CCN(C)CC2)cc1)c1ccccc1` [nintedanib], the “scores of inflammation (inflammatory cell infiltrate), words” value in data set [3] is recorded as “prominent reductions”. Further, in data set [1], the “angiogenesis/neovascularization and fibrosis by histopathology versus untreated wounds (words)” value was “decreased angiogenesis and fibrosis”; the “average total score of test wounds, fold lower than untreated wounds” value is “about 1.33 fold”; the “Total Score, Treated Mean” value was 4.5; the “Fibrosis/Collagen score, Treated Mean” value is listed as 3. In data set [1], the “Neovascularization score, Treated Mean” value is recorded as 1 and the “Re-epithelization score, Treated Mean” value is 0.5. In data set [1] (listed as Nintedanib), the “angiogenesis/neovascularization and fibrosis by histopathology versus untreated wounds (words)” value is “much less neovascularization and about the same fibrosis as untreated wounds”. Also, in the data set on subretinal fibrosis, the “effect on subretinal fibrosis” value is recorded as “therapeutic effects in the treatment of subretinal fibrosis” and the “neovascular lesion sizes” value was “marked reductions in neovascular lesion sizes”.
